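Cells were grown in 96-well plates and exposed to each compound for 48 hours at five concentrations; endpoints were interpolated linearly between bracketing concentrations, or set to the highest concentration if not reached. The concentration for full growth arrest is given as TGI.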 *1 amine or outer side, *2 acyl side, *3 side chain or, on linkers, in order; H or OH if unused. Where a SMILES comes first, the peptide text is derived from it. Bridges are numbered along the chain shown (N, C = ends). [ ]: non-standard residue; d: D form. X35 = CC[C@H](C)[C@@H](N[*:1])[C@@H](O)CC(=O)O[C@H](C(=O)[C@H](C)C(=O)[*:2])C(C)C; NMeY = CN[C@@H](Cc1ccc(O)cc1)C(=O)O; ΔPro = O=C(O)[CH]1C=CCN1
Key:
Experiment in all cases: NCI-60 cell line screen, 48 h
[1] = test system: SK-OV-3 ovarian
[2] = test system: HT29 colon
[3] = test system: SNB-75 CNS
[4] = test system: NCI/ADR-RES ovarian
[5] = test system: UO-31 renal
[6] = test system: BT-549 breast
[7] = test system: NCI-H23 lung
[8] = test system: EKVX NSCLC
[9] = test system: LOX IMVI melanoma
[10] = test system: MOLT-4 leukemia
[11] = test system: SR leukemia
[12] = test system: UACC-62 melanoma
[13] = test system: SF-539 CNS
[14] = test system: SF-268 CNS
[15] = test system: MALME-3M melanoma
[16] = test system: OVCAR-3 ovarian
[17] = test system: TK-10 renal
[18] = test system: NCI-H522 lung

| SMILES | TGI [1] [µM] | TGI [2] [µM] | TGI [3] [µM] | TGI [4] [µM] | TGI [5] [µM] | TGI [6] [µM] | TGI [7] [µM] | TGI [8] [µM] | TGI [9] [µM] | TGI [10] [µM] | TGI [11] [µM] | TGI [12] [µM] | TGI [13] [µM] | TGI [14] [µM] | TGI [15] [µM] | TGI [16] [µM] | TGI [17] [µM] | TGI [18] [µM] |
| --- | --- | --- | --- | --- | --- | --- | --- | --- | --- | --- | --- | --- | --- | --- | --- | --- | --- | --- |
| C[C@@H]1S[C@H](c2c(F)cccc2Cl)n2c1nc1ccccc12 | 55.9 | 29.3 | 60.8 | 31.4 | 24.2 | 28.2 | 28 | 56 | 25.3 | 32 | 67.7 | 29.7 | 28.9 | 36.3 | 30.6 | 28.2 | > 100 |  |
| CN(C)c1ccc(C=Nc2ccc(-c3nc4ccccc4s3)cc2)cc1 | > 100 | > 100 | 80.9 | 92 | > 100 | > 100 | 97.6 | > 100 | 94.8 | > 100 | > 100 | 31.7 | > 100 |  | 95.7 | 57.6 | 75.8 | 51.2 |
| CN(C)[C@@H]1C(=O)C(C(=O)NCNc2nc3n[nH]nc3c(=O)[nH]2)=C(O)[C@@]2(O)C(=O)C3=C(O)c4c(O)cccc4[C@@](C)(O)[C@H]3C[C@@H]12 | 8.25 | > 100 | > 95.8 | > 100 | 18.5 | > 100 | > 100 | > 69.5 | 17.3 | > 17.2 | > 19.5 | 7.59 | 8.88 | > 92.2 | 13.1 | > 74.2 | > 80.5 | > 80.3 |
| Cn1nnc2c(C(N)=S)ncn2c1=O | > 100 | > 100 | > 100 | > 100 | > 100 | > 100 | > 100 | > 100 | > 100 | > 100 | > 100 | > 100 | > 100 | > 100 | > 100 | > 100 | > 100 | > 100 |
| CC(=O)OCC1(C)C(O)CCC2(C)C1CCC1CC3CC12CCC3(O)CO (configuration not stated) | > 100 | > 100 | > 100 | > 100 | > 100 | > 100 | > 100 | > 100 | > 100 | > 100 | > 29.4 | > 100 | > 100 | > 100 | > 100 | > 100 | > 100 | > 100 |
| COc1ccc(N2C(=O)C(Cl)C2c2cc3cc(Br)ccc3nc2Cl)cc1 (configuration not stated) | > 25 | 8.84 | > 25 | 14.1 | 2.43 | 9.11 | 15.6 | 9.86 | 4.41 | 11.9 | 6.82 | 8.86 | 10 | 19 | 10.1 | > 25 | 15.5 | 8.33 |
| CCN(CC)CCNc1ccc2ncn3c4ccc(OC)cc4c(=O)c1c23 | 23.8 | 8.14 | 20.8 | 16.1 | 11.8 | 33 | 18.1 | 29.2 | 4.68 | 11 | > 22.7 | 33.9 | 20 | 14.4 | 25.1 | 24.2 | 29.2 | 21.4 |
| CC[C@H](C)[C@H]1NC(=O)[C@@H](N)[C@@H](C)OC(=O)[C@H](Cc2ccc(OC)cc2)N(C)C(=O)[C@@H]2CCCN2C(=O)[C@H](CC(C)C)NC(=O)[C@@H](C)C(=O)[C@H](C(C)C)OC(=O)C[C@@H]1O (H-T[X35]LP[NMeY](Me); ester 1-C) | > 100 | 38.8 | > 100 | > 100 | 68.7 | 45.9 | > 100 | > 100 | > 100 | > 100 | > 100 | 92.3 | 66.2 | > 100 | > 100 | > 100 | > 100 | 25.1 |
| CCN(CC)C1Oc2cc3c(cc2C(c2cc(OC)c(O)c(OC)c2)C1C)OCO3 (configuration not stated) | 66.3 | 22.2 | 23.9 | 37.4 | > 100 | > 100 | > 100 | > 75.6 | 29 | 27.2 | 32.7 | 26.2 | 34.7 | > 100 | 30 | 25.9 | 72.5 | 11 |
| CC(=O)Nc1cc(Cl)cc(Cl)c1O | > 100 | > 100 | > 100 | > 100 | > 100 | > 100 | > 100 | > 100 |  | > 100 | > 100 | > 100 | > 100 | > 100 | > 100 | > 100 | > 100 | > 100 |
| COc1ccccc1-n1nnc2c(N)nc(N)nc21 | > 100 | > 100 | > 100 | > 100 | > 100 | > 100 | > 100 | > 100 | > 100 | > 100 | > 100 | > 100 | > 100 | > 100 | > 100 | > 100 | > 100 | > 100 |
| CN1CCC2(c3ccccc3)CC(=O)/C(=C/c3ccc(Cl)c(Cl)c3)C1C2 (configuration not stated) | 13.6 | 4.12 | 11.2 | 11 | 3.82 | 6.83 | 8.45 | 9.63 | 3.34 | 7.81 | 4.74 | 3 | 4.35 | 3.73 | 24.4 | 9.59 | 11.7 | 3.6 |
| C=C1N(S(=O)(=O)c2ccc(C)cc2)C(=O)OCC12CCCC2 | > 100 | > 100 | 62.6 | > 100 | > 100 | > 100 | > 100 | > 100 | > 100 | > 100 | > 100 | > 100 | > 100 |  | > 100 | > 100 | > 100 | > 100 |
| CCCCCCCCOC(=O)C12Oc3ccc(-c4ccc5c(c4O)C(O)=C4C(=O)CC(C)C(O)C4(C(=O)OCCCCCCCC)O5)c(O)c3C(O)=C1C(=O)CC(C)C2O (configuration not stated) | > 100 | > 100 | 25.5 | > 100 | 92.2 | 41.9 | 31.5 | > 100 | > 100 | 60.6 | 20.3 | 99.3 | 19.7 | > 100 | > 100 | > 100 | > 100 | 48.2 |
| CSC1=NN(C(C)=O)C(C(OC(C)=O)C(OC(C)=O)C(OC(C)=O)C(COC(C)=O)OC(C)=O)S1 (configuration not stated) | > 100 | > 100 | > 100 | > 100 | > 100 | > 100 | > 100 | > 100 | > 100 | > 100 | > 100 | > 100 | > 100 | > 100 | > 100 | > 100 | > 100 | > 100 |
| [N-]=[N+]=NC1C(O)C(CO)OC1n1ccc(N)nc1=O (configuration not stated) | > 625 | > 625 | > 625 | > 625 | 616 | > 625 | > 625 | > 625 | > 625 | > 174 | 296 | 350 | 455 | > 625 | > 625 | > 595 | > 625 | > 625 |
| C/C(=C\COP(=O)(O)OP(=O)(O)O)CCCCCCOCc1ccccc1 | > 100 | > 100 | > 100 | > 100 | > 100 | > 100 | > 100 | > 100 | > 100 | > 100 | > 100 | > 100 | > 100 | > 100 | > 100 | > 100 | > 100 | > 100 |
| COC(=O)c1cc(CC2Cc3cc4c(cc3C2=O)CCC4)cc2c1CCC2 (configuration not stated) | > 100 | > 100 | > 100 | > 100 | > 100 | > 100 | > 100 | > 100 | > 100 | > 100 | > 100 | > 100 | > 100 | > 100 | > 100 | > 100 | > 100 | > 100 |
| CSc1c(C#N)c(=O)n(N)c2c1c(C)nn2-c1ccccc1 | 93.8 | 65.4 | 85.4 | 62.9 | 51.9 | > 100 | 52.7 | 78 | 52.6 | 85.1 | 71.8 | 75.8 | 55.5 | > 100 | 70.2 | 77 | > 100 | > 100 |
| C=C(Cl)/C(=C\Cl)CCC(Cl)C(C)C (configuration not stated) (tested in a mixture with another compound) | 44.5 | 36.8 | 32.5 | 84.4 | 32.1 | 29.3 | 28.2 | 33.3 | 3.67 | > 100 | > 100 | 25.3 | 32.2 | 37.1 | 29.2 | 30.1 | 33.9 | 16.8 |
| C[N+](C)(C)CC(=O)N/N=C(\Cc1nc2ccc([N+](=O)[O-])cc2[nH]c1=O)C(=O)Nc1nc2ccc([N+](=O)[O-])cc2s1 | > 100 | > 100 | > 100 | > 100 | > 100 | 94.3 | > 100 | > 100 | > 100 | > 100 | > 100 | > 100 | > 100 | > 100 |  | > 100 | > 100 | 79.8 |
| COc1ccc(-c2sc(Br)c3c2C(=O)C2OC(=O)NC32)cc1OC (configuration not stated) | > 100 | > 100 | > 100 | > 100 | > 100 | > 100 | > 100 | > 100 | > 100 | > 100 | > 100 | > 100 | > 100 | > 100 | > 100 | > 100 | > 100 | > 100 |
| NS(=O)(=O)c1nnc(NS(=O)(=O)c2ccccc2[N+](=O)[O-])s1 | > 100 | > 100 | > 100 | > 100 | > 100 | > 100 | > 100 | > 100 |  | > 100 | > 100 | > 100 | > 100 | > 100 | > 100 | > 100 | > 100 | > 100 |
| O=C(O)C1C=CCN1C(=O)C1C=CCN1C(=O)C1C=CCN1 (configuration not stated) (H-[ΔPro]-[ΔPro]-[ΔPro]-OH; configuration not given here) | > 100 | > 100 | > 100 | > 100 | > 100 | > 100 | > 100 | > 100 | > 100 | > 100 | > 100 | > 100 | > 100 | > 100 | > 100 | > 100 | > 100 | > 100 |
| O=C(c1cscc1CCc1ccccc1)c1cscc1CCc1ccccc1 | > 100 |  | > 100 | > 100 | > 100 | > 100 | > 100 | > 100 | > 100 | > 100 | > 100 | > 100 | > 100 | > 100 | > 100 |  | > 100 | > 100 |

Reference: PubChem BioAssay (NCI)
